US20230167073A1 (Teijin Pharma Limited, priority 2020, published 2023)

molecular target: T1, Human TRPC6 (Homo sapiens, UniProt Q9Y210); assay: Evaluation of TRPC6 channel inhibitory activity (1), FLIPR Calcium 5 Assay Kit, OAG stimulation (Compound Nos. 1-1293); type: cell-based; settings: not given
T1 construct: expressed in transfected cells
T1 sequence (Q9Y210 1-931): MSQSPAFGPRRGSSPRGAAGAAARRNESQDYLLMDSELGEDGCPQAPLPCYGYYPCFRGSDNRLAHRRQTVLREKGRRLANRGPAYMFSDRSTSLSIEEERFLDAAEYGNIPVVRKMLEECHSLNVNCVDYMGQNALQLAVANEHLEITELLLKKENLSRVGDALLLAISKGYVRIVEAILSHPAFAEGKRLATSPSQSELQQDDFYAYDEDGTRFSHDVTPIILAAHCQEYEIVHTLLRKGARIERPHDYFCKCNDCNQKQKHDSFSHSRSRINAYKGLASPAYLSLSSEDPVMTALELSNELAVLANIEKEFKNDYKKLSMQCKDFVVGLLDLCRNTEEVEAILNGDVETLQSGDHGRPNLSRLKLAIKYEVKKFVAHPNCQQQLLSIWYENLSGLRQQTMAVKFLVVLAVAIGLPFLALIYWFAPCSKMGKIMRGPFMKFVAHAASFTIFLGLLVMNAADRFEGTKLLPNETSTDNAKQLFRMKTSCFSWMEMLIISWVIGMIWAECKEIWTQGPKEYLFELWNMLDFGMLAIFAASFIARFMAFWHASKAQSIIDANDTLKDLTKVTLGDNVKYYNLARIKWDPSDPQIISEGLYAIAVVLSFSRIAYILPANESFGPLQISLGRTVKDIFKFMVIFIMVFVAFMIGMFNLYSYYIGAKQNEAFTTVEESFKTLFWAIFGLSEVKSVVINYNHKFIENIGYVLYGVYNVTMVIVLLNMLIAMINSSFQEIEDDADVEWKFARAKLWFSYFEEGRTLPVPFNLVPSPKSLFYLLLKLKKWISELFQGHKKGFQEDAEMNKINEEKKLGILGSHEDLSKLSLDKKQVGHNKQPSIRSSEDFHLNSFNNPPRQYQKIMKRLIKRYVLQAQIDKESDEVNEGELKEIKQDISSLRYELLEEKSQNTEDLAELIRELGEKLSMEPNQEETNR
Method in brief: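 The FLIPR signal is maximum fluorescence after 30 μM OAG minus minimum before compound, measured in a human TRPC6 stable line loaded with Calcium 5 dye. Compounds were preincubated 20 min. pIC50 came from four-parameter logistic fitting of inhibition rates and is given as symbol ranges.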

`Cc1nc(Oc2cc(C#N)ccc2-c2ncc(CCN)cn2)cc(N2C3CCC2CC3)n1` [compound 671, 4-[5-(2-aminoethyl)pyrimidin-2-yl]-3-[6-(7-azabicyclo[2.2.1]heptan-7-yl)-2-methylpyrimidin-4-yl]oxybenzonitrile] and `Cc1nc(Oc2cc(C#N)ccc2-c2ncc(CN)cn2)cc(N2C3CCC2CC3)n1` [compound 672, 4-[5-(aminomethyl)pyrimidin-2-yl]-3-[6-(7-azabicyclo[2.2.1]heptan-7-yl)-2-methylpyrimidin-4-yl]oxybenzonitrile] cannot be ordered by IC50: < 10 nM for the first, < 10 nM for the second.

same assay, conditions: Human TRPC6 stably-expressing cells, OAG 30 μM, FLIPR Calcium 5 Assay Kit; read-out: Inhibitory activity (pIC50 class) (converted)

First: Cn1nc(-c2ncccc2F)cc1Oc1cc(C#N)ccc1-c1ncc(CN)cn1 [compound 649, 4-[5-(aminomethyl)pyrimidin-2-yl]-3-[5-(3-fluoropyridin-2-yl)-2-methylpyrazol-3-yl]oxybenzonitrile]
Second: Cn1nc(-c2ccc(F)cn2)cc1Oc1cc(C#N)ccc1-c1ncc(CN)cn1 [compound 651, 4-[5-(aminomethyl)pyrimidin-2-yl]-3-[5-(5-fluoropyridin-2-yl)-2-methylpyrazol-3-yl]oxybenzonitrile]
The IC50 of the first is higher: 10 to 1000 nM for the first, < 10 nM for the second.

First: Cc1cccc(-c2cc(Oc3cc(C#N)ccc3-c3ncc(CN)cn3)n(C)n2)n1 [compound 650, 4-[5-(aminomethyl)pyrimidin-2-yl]-3-[2-methyl-5-(6-methylpyridin-2-yl)pyrazol-3-yl]oxybenzonitrile]
Second: Cc1ccnc(-c2cc(Oc3cc(C#N)ccc3-c3ncc(CN)cn3)n(C)n2)c1 [compound 652, 4-[5-(aminomethyl)pyrimidin-2-yl]-3-[2-methyl-5-(4-methylpyridin-2-yl)pyrazol-3-yl]oxybenzonitrile]
The IC50 of the first is higher: 10 to 1000 nM for the first, < 10 nM for the second.

`Cc1nc(Oc2cc(C#N)ccc2-c2ncc(CN)cn2)cc(N2CC(F)(F)C2)n1` [compound 653, 4-[5-(aminomethyl)pyrimidin-2-yl]-3-[6-(3,3-difluoroazetidin-1-yl)-2-methylpyrimidin-4-yl]oxybenzonitrile] and `Cc1nc(Oc2cc(C#N)ccc2-c2ncc(CN)cn2)cc(N2CCCC2)n1` [compound 658, 4-[5-(aminomethyl)pyrimidin-2-yl]-3-(2-methyl-6-pyrrolidin-1-ylpyrimidin-4-yl)oxybenzonitrile] fall in the same range of IC50: 10 to 1000 nM for the first, 10 to 1000 nM for the second.

First: Cc1nc(Oc2cc(C#N)ccc2-c2ccc(CCN)cn2)cc(N2CCN(S(C)(=O)=O)CC2)n1 [compound 654, 4-[5-(2-aminoethyl)pyridin-2-yl]-3-[2-methyl-6-(4-methylsulfonylpiperazin-1-yl)pyrimidin-4-yl]oxybenzonitrile]
Second: Cc1nc(Oc2cc(C#N)ccc2-c2ccc(CN)cn2)cc(N2CCCC2)n1 [compound 657, 4-[5-(aminomethyl)pyridin-2-yl]-3-(2-methyl-6-pyrrolidin-1-ylpyrimidin-4-yl)oxybenzonitrile]
The IC50 of the first is higher: > 1000 nM for the first, < 10 nM for the second.

`CCN(CC)c1cc(Oc2cc(C#N)ccc2-c2ncc(CN)cn2)n(C)n1` [compound 655, 4-[5-(aminomethyl)pyrimidin-2-yl]-3-[5-(diethylamino)-2-methylpyrazol-3-yl]oxybenzonitrile] and `CCN(CC)c1cc(Oc2cc(C#N)ccc2-c2ncc(CCN)cn2)n(C)n1` [compound 656, 4-[5-(2-aminoethyl)pyrimidin-2-yl]-3-[5-(diethylamino)-2-methylpyrazol-3-yl]oxybenzonitrile] cannot be ordered by IC50: < 10 nM for the first, < 10 nM for the second.

First: Cc1nc(Oc2cc(C#N)ccc2-c2ccc(CN)cn2)cc(N(C)C)n1 [compound 659, 4-[5-(aminomethyl)pyridin-2-yl]-3-[6-(dimethylamino)-2-methylpyrimidin-4-yl]oxybenzonitrile]
Second: Cc1nc(Oc2cc(C#N)ccc2-c2ncc(CN)cn2)cc(N(C)C)n1 [compound 660, 4-[5-(aminomethyl)pyrimidin-2-yl]-3-[6-(dimethylamino)-2-methylpyrimidin-4-yl]oxybenzonitrile]
The IC50 of the first is lower: 10 to 1000 nM for the first, > 1000 nM for the second.

First: Cc1cc(Oc2cc(C#N)ccc2-c2ncc(CNC(C)(C)C)cn2)cc(N2CCOCC2)n1 [compound 661, 4-[5-[(tert-butylamino)methyl]pyrimidin-2-yl]-3-(2-methyl-6-morpholin-4-ylpyridin-4-yl)oxybenzonitrile]
Second: Cn1nc(-c2ccccn2)cc1Oc1cc(C#N)ccc1-c1ncc(CNC(C)(C)C)cn1 [compound 664, 4-[5-[(tert-butylamino)methyl]pyrimidin-2-yl]-3-(2-methyl-5-pyridin-2-ylpyrazol-3-yl)oxybenzonitrile]
The IC50 of the first is higher: > 1000 nM for the first, 10 to 1000 nM for the second.

`Cn1nc(-c2ccccn2)cc1Oc1cc(C#N)ccc1-c1ncc(CNC2CC2)cn1` [compound 662, 4-[5-[(cyclopropylamino)methyl]pyrimidin-2-yl]-3-(2-methyl-5-pyridin-2-ylpyrazol-3-yl)oxybenzonitrile] and `CC(C)NCc1cnc(-c2ccc(C#N)cc2Oc2cc(-c3ccccn3)nn2C)nc1` [compound 663, 3-(2-methyl-5-pyridin-2-ylpyrazol-3-yl)oxy-4-[5-[(propan-2-ylamino)methyl]pyrimidin-2-yl]benzonitrile] fall in the same range of IC50: 10 to 1000 nM for the first, 10 to 1000 nM for the second.

`Cn1nc(-c2ccccn2)cc1Oc1cc(C#N)ccc1-c1ncc(CNC2(C)COC2)cn1` [compound 665, 4-[5-[[(3-methyloxetan-3-yl)amino]methyl]pyrimidin-2-yl]-3-(2-methyl-5-pyridin-2-ylpyrazol-3-yl)oxybenzonitrile] and `Cn1nc(-c2ccccn2)cc1Oc1cc(C#N)ccc1-c1ncc(CNC23CC4CC(CC(C4)C2)C3)cn1` [compound 666, 4-[5-[(1-adamantylamino)methyl]pyrimidin-2-yl]-3-(2-methyl-5-pyridin-2-ylpyrazol-3-yl)oxybenzonitrile] cannot be ordered by IC50: > 1000 nM for the first, > 1000 nM for the second.

First: Cc1nc(Oc2cc(C#N)ccc2-c2ccc(CC3(N)COC3)cn2)cc(N2CCC(F)CC2)n1 [compound 667, 4-[5-[(3-aminooxetan-3-yl)methyl]pyridin-2-yl]-3-[6-(4-fluoropiperidin-1-yl)-2-methylpyrimidin-4-yl]oxybenzonitrile]
Second: Cc1nc(Oc2cc(C#N)ccc2-c2ccc(CC3(N)COC3)cn2)cc(N2CCC[C@H]2C#N)n1 [compound 673, (2S)-1-[6-[2-[5-[(3-aminooxetan-3-yl)methyl]pyridin-2-yl]-5-cyanophenoxy]-2-methylpyrimidin-4-yl]pyrrolidine-2-carbonitrile]
The IC50 of the first is lower: 10 to 1000 nM for the first, > 1000 nM for the second.

First: Cc1nc(Oc2cc(C#N)ccc2-c2ncc(CCN)cn2)cc(N2CCC(F)CC2)n1 [compound 668, 4-[5-(2-aminoethyl)pyrimidin-2-yl]-3-[6-(4-fluoropiperidin-1-yl)-2-methylpyrimidin-4-yl]oxybenzonitrile]
Second: Cc1nc(Oc2cc(C#N)ccc2-c2ncc(CN)cn2)cc(N2CCC(F)CC2)n1 [compound 669, 4-[5-(aminomethyl)pyrimidin-2-yl]-3-[6-(4-fluoropiperidin-1-yl)-2-methylpyrimidin-4-yl]oxybenzonitrile]
The IC50 of the first is lower: < 10 nM for the first, 10 to 1000 nM for the second.

`Cc1nc(Oc2cc(C#N)ccc2-c2ncc(CCN)cn2)cc(N2CCC[C@H]2C#N)n1` [compound 674, (2S)-1-[6-[2-[5-(2-aminoethyl)pyrimidin-2-yl]-5-cyanophenoxy]-2-methylpyrimidin-4-yl]pyrrolidine-2-carbonitrile] and `Cc1nc(Oc2cc(C#N)ccc2-c2ncc(CN)cn2)cc(N2CCC[C@H]2C#N)n1` [compound 675, (2S)-1-[6-[2-[5-(aminomethyl)pyrimidin-2-yl]-5-cyanophenoxy]-2-methylpyrimidin-4-yl]pyrrolidine-2-carbonitrile] fall in the same range of IC50: 10 to 1000 nM for the first, 10 to 1000 nM for the second.

`Cc1cc(Oc2cc(C#N)ccc2-c2ncc(CN)cn2)no1` [compound 676, 4-[5-(aminomethyl)pyrimidin-2-yl]-3-[(5-methyl-1,2-oxazol-3-yl)oxy]benzonitrile] and `Cc1cc(Oc2cc(C#N)ccc2-c2ncc(CCN)cn2)no1` [compound 677, 4-[5-(2-aminoethyl)pyrimidin-2-yl]-3-[(5-methyl-1,2-oxazol-3-yl)oxy]benzonitrile] cannot be ordered by IC50: > 1000 nM for the first, > 1000 nM for the second.

`Cn1nc2c(c1Oc1cc(C#N)ccc1-c1ncc(CN)cn1)CCC2` [compound 678, 4-[5-(aminomethyl)pyrimidin-2-yl]-3-[(2-methyl-5,6-dihydro-4H-cyclopenta[c]pyrazol-3-yl)oxy]benzonitrile] and `Cn1nc2c(c1Oc1cc(C#N)ccc1-c1ncc(CN)cn1)COCC2` [compound 679, 4-[5-(aminomethyl)pyrimidin-2-yl]-3-[(2-methyl-6,7-dihydro-4H-pyrano[4,3-c]pyrazol-3-yl)oxy]benzonitrile] cannot be ordered by IC50: > 1000 nM for the first, > 1000 nM for the second.
